Measurements taken from ChEMBL document CHEMBL3044826, “Design, synthesis and biological evaluation of some novel substituted 2-mercapto-3-phenethylquinazolines as antitumor agents” (2013).

What was measured:
Type in all cases: functional
SNB-19 = assay: Cytotoxicity against Homo sapiens (human) SNB19 cells assessed as growth inhibition at 10 uM after 48 hr by coulter counter analysis; details: SNB-19, 48 h, read-out: GI
UO-31 = assay: Cytotoxicity against Homo sapiens (human) UO31 cells assessed as growth inhibition at 10 uM after 48 hr by coulter counter analysis; details: UO-31, 48 h, read-out: GI
CAKI-1 = assay: Cytotoxicity against Homo sapiens (human) Caki1 cells assessed as growth inhibition at 10 uM after 48 hr by coulter counter analysis; details: CAKI-1, 48 h, read-out: GI
RXF 393 = assay: Cytotoxicity against Homo sapiens (human) RXF393 cells assessed as growth inhibition at 10 uM after 48 hr by coulter counter analysis; details: RXF 393, 48 h, read-out: GI
HCT-116 = assay: Cytotoxicity against Homo sapiens (human) HCT116 cells assessed as growth inhibition at 10 uM after 48 hr by coulter counter analysis; details: HCT-116, 48 h, read-out: GI
PC-3 = assay: Cytotoxicity against Homo sapiens (human) PC3 cells assessed as growth inhibition at 10 uM after 48 hr by coulter counter analysis; details: PC-3, 48 h, read-out: GI
A498 = assay: Cytotoxicity against Homo sapiens (human) A498 cells assessed as growth inhibition at 10 uM after 48 hr by coulter counter analysis; details: A498, 48 h, read-out: GI
BT-549 = assay: Cytotoxicity against Homo sapiens (human) BT549 cells assessed as growth inhibition at 10 uM after 48 hr by coulter counter analysis; details: BT-549, 48 h, read-out: GI
SF-295 = assay: Cytotoxicity against Homo sapiens (human) SF295 cells assessed as growth inhibition at 10 uM after 48 hr by coulter counter analysis; details: SF-295, 48 h, read-out: GI
LOX IMVI = assay: Cytotoxicity against Homo sapiens (human) LOXIMVI cells assessed as growth inhibition at 10 uM after 48 hr by coulter counter analysis; details: read-out: GI
DU-145 = assay: Cytotoxicity against Homo sapiens (human) DU145 cells assessed as growth inhibition at 10 uM after 48 hr by coulter counter analysis; details: DU-145, 48 h, read-out: GI
IGROV-1 = assay: Cytotoxicity against Homo sapiens (human) IGROV1 cells assessed as growth inhibition at 10 uM after 48 hr by coulter counter analysis; details: IGROV-1, 48 h, read-out: GI
SK-MEL-5 = assay: Cytotoxicity against Homo sapiens (human) SK-MEL-5 cells assessed as growth inhibition at 10 uM after 48 hr by coulter counter analysis; details: SK-MEL-5, 48 h, read-out: GI
A549 = assay: Cytotoxicity against Homo sapiens (human) A549 cells assessed as growth inhibition at 10 uM after 48 hr by coulter counter analysis; details: A549, 48 h, read-out: GI
HOP-62 = assay: Cytotoxicity against Homo sapiens (human) HOP62 cells assessed as growth inhibition at 10 uM after 48 hr by coulter counter analysis; details: HOP-62, 48 h, read-out: GI
MDA-MB-468 = assay: Cytotoxicity against Homo sapiens (human) MDA-MB-468 cells assessed as growth inhibition at 10 uM after 48 hr by coulter counter analysis; details: MDA-MB-468, 48 h, read-out: GI
SNB-75 = assay: Cytotoxicity against Homo sapiens (human) SNB75 cells assessed as growth inhibition at 10 uM after 48 hr by coulter counter analysis; details: SNB-75, 48 h, read-out: GI
OVCAR-3 = assay: Cytotoxicity against Homo sapiens (human) OVCAR3 cells assessed as growth inhibition at 10 uM after 48 hr by coulter counter analysis; details: OVCAR-3, 48 h, read-out: GI
NCI-H322M = assay: Cytotoxicity against Homo sapiens (human) NCI-H322M cells assessed as growth inhibition at 10 uM after 48 hr by coulter counter analysis; details: read-out: GI
HT-29 = assay: Cytotoxicity against Homo sapiens (human) HT-29 cells assessed as growth inhibition at 10 uM after 48 hr by coulter counter analysis; details: HT-29, 48 h, read-out: GI
SK-MEL-28 = assay: Cytotoxicity against Homo sapiens (human) SK-MEL-28 cells assessed as growth inhibition at 10 uM after 48 hr by coulter counter analysis; details: SK-MEL-28, 48 h, read-out: GI
HCT-15 = assay: Cytotoxicity against Homo sapiens (human) HCT15 cells assessed as growth inhibition at 10 uM after 48 hr by coulter counter analysis; details: HCT-15, 48 h, read-out: GI
ACHN = assay: Cytotoxicity against Homo sapiens (human) ACHN cells assessed as growth inhibition at 10 uM after 48 hr by coulter counter analysis; details: read-out: GI
SN12C = assay: Cytotoxicity against Homo sapiens (human) SN12C cells assessed as growth inhibition at 10 uM after 48 hr by coulter counter analysis; details: read-out: GI
SK-OV-3 = assay: Cytotoxicity against Homo sapiens (human) SKOV3 cells assessed as growth inhibition at 10 uM after 48 hr by coulter counter analysis; details: SK-OV-3, 48 h, read-out: GI
MDA-MB-435 = assay: Cytotoxicity against Homo sapiens (human) MDA-MB-435 cells assessed as growth inhibition at 10 uM after 48 hr by coulter counter analysis; details: MDA-MB-435, 48 h, read-out: GI
COLO 205 = assay: Cytotoxicity against Homo sapiens (human) COLO205 cells assessed as growth inhibition at 10 uM after 48 hr by coulter counter analysis; details: COLO 205, 48 h, read-out: GI
SW-620 = assay: Cytotoxicity against Homo sapiens (human) SW620 cells assessed as growth inhibition at 10 uM after 48 hr by coulter counter analysis; details: SW-620, 48 h, read-out: GI
MCF7 = assay: Cytotoxicity against Homo sapiens (human) MCF7 cells assessed as growth inhibition at 10 uM after 48 hr by coulter counter analysis; details: MCF7, 48 h, read-out: GI
TK-10 = assay: Cytotoxicity against Homo sapiens (human) TK10 cells assessed as growth inhibition at 10 uM after 48 hr by coulter counter analysis; details: TK-10, 48 h, read-out: GI
SF-268 = assay: Cytotoxicity against Homo sapiens (human) SF268 cells assessed as growth inhibition at 10 uM after 48 hr by coulter counter analysis; details: SF-268, 48 h, read-out: GI
SF-539 = assay: Cytotoxicity against Homo sapiens (human) SF539 cells assessed as growth inhibition at 10 uM after 48 hr by coulter counter analysis; details: SF-539, 48 h, read-out: GI
UACC-62 = assay: Cytotoxicity against Homo sapiens (human) UACC62 cells assessed as growth inhibition at 10 uM after 48 hr by coulter counter analysis; details: UACC-62, 48 h, read-out: GI
MDA-MB-231 = assay: Cytotoxicity against Homo sapiens (human) MDA-MB-231 cells assessed as growth inhibition at 10 uM after 48 hr by coulter counter analysis; details: MDA-MB-231, 48 h, read-out: GI

| Compound | inhibition of growth at 10 µM (SNB-19) [%] | inhibition of growth at 10 µM (UO-31) [%] | inhibition of growth at 10 µM (CAKI-1) [%] | inhibition of growth at 10 µM (RXF 393) [%] | inhibition of growth at 10 µM (HCT-116) [%] | inhibition of growth at 10 µM (PC-3) [%] | inhibition of growth at 10 µM (A498) [%] | inhibition of growth at 10 µM (BT-549) [%] | inhibition of growth at 10 µM (SF-295) [%] | inhibition of growth at 10 µM (LOX IMVI) [%] | inhibition of growth at 10 µM (DU-145) [%] | inhibition of growth at 10 µM (IGROV-1) [%] | inhibition of growth at 10 µM (SK-MEL-5) [%] | inhibition of growth at 10 µM (A549) [%] | inhibition of growth at 10 µM (HOP-62) [%] | inhibition of growth at 10 µM (MDA-MB-468) [%] | inhibition of growth at 10 µM (SNB-75) [%] | inhibition of growth at 10 µM (OVCAR-3) [%] | inhibition of growth at 10 µM (NCI-H322M) [%] | inhibition of growth at 10 µM (HT-29) [%] | also measured |
| --- | --- | --- | --- | --- | --- | --- | --- | --- | --- | --- | --- | --- | --- | --- | --- | --- | --- | --- | --- | --- | --- |
| CSc1nc2ccccc2c(=O)n1CCc1ccccc1 | < 10 | 37 | < 10 | 30 | 37 | 33 | 18 | < 10 | < 10 | 11 | < 10 | 24 | 19 | 12 | 12 | 84 | < 10 | < 10 | < 10 | < 10 | inhibition of growth at 10 µM (SK-MEL-28): < 10%; inhibition of growth at 10 µM (HCT-15): 39%; inhibition of growth at 10 µM (ACHN): 34%; inhibition of growth at 10 µM (SN12C): < 10%; inhibition of growth at 10 µM (SK-OV-3): < 10%; inhibition of growth at 10 µM (MDA-MB-435): 47%; inhibition of growth at 10 µM (COLO 205): 19%; inhibition of growth at 10 µM (SW-620): 12%; inhibition of growth at 10 µM (MCF7): 34%; inhibition of growth at 10 µM (TK-10): < 10%; inhibition of growth at 10 µM (SF-268): < 10%; inhibition of growth at 10 µM (SF-539): < 10%; inhibition of growth at 10 µM (UACC-62): 12%; inhibition of growth at 10 µM (MDA-MB-231): 30% |
| O=c1c2ccccc2[nH]c(=S)n1CCc1ccccc1 | < 10 | 33 | < 10 | < 10 | 18 | 13 | 46 | < 10 | 13 | < 10 | < 10 | < 10 | 13 | < 10 | 26 | 22 | < 10 | < 10 | < 10 | < 10 | inhibition of growth at 10 µM (SK-MEL-28): < 10%; inhibition of growth at 10 µM (HCT-15): < 10%; inhibition of growth at 10 µM (ACHN): < 10%; inhibition of growth at 10 µM (SN12C): < 10%; inhibition of growth at 10 µM (SK-OV-3): < 10%; inhibition of growth at 10 µM (MDA-MB-435): < 10%; inhibition of growth at 10 µM (COLO 205): < 10%; inhibition of growth at 10 µM (SW-620): < 10%; inhibition of growth at 10 µM (MCF7): 31%; inhibition of growth at 10 µM (TK-10): < 10%; inhibition of growth at 10 µM (SF-268): < 10%; inhibition of growth at 10 µM (SF-539): < 10%; inhibition of growth at 10 µM (UACC-62): 20%; inhibition of growth at 10 µM (MDA-MB-231): < 10% |
| O=c1c2ccccc2nc(SCCN2CCCCC2)n1CCc1ccccc1 | < 10 | 43 | 27 | 19 | 27 | < 10 | 17 | 14 | 13 | 19 | 11 | 22 | 24 | 13 | 11 | < 10 | 13 | < 10 | < 10 | 70 | inhibition of growth at 10 µM (SK-MEL-28): < 10%; inhibition of growth at 10 µM (HCT-15): 20%; inhibition of growth at 10 µM (ACHN): < 10%; inhibition of growth at 10 µM (SN12C): < 10%; inhibition of growth at 10 µM (SK-OV-3): < 10%; inhibition of growth at 10 µM (MDA-MB-435): < 10%; inhibition of growth at 10 µM (COLO 205): 25%; inhibition of growth at 10 µM (SW-620): 11%; inhibition of growth at 10 µM (MCF7): 37%; inhibition of growth at 10 µM (TK-10): < 10%; inhibition of growth at 10 µM (SF-268): < 10%; inhibition of growth at 10 µM (SF-539): < 10%; inhibition of growth at 10 µM (UACC-62): < 10%; inhibition of growth at 10 µM (MDA-MB-231): 34% |
